Where no end group is shown, it is not given here.
Key:
Test in all cases: In vitro HLA-DR peptide binding assay
HLA DRB1*0301 = HLA DRB1*0301 (Homo sapiens, UniProt P01903+P01911, A100K/A102G/A103R/A169T/F55Y/I96L/K41T/L162R/M171V/P40S/Q125H/Q178H/Q39Y/R42S/S66N/T106N/T262R/W38E/Y61H)
HLA DRB3*0101 = HLA DRB3*0101 (Homo sapiens, UniProt P01903+P79483)
HLA DRB1*1101 = HLA DRB1*1101 (Homo sapiens, UniProt P01903+P01911, A100R/A169T/A87E/I96F/K41T/L162R/M171V/P40S/Q125H/Q178H/Q39Y/Q99D/R42S/S66Y/T262R/V115G/W38E)
HLA DRB1*0405 = HLA DRB1*0405 (Homo sapiens, UniProt P01903+P01911, A100R/A169T/D86S/F76Y/I96L/K127E/L162R/M171V/N62H/P40V/Q125Y/R42H/S133A/S149N/S66Y/V115G/V209L/W38E)
HLA DRB1*1302 = HLA DRB1*1302 (Homo sapiens, UniProt P01903+P01911, A100E/A169T/K41T/L162R/M171V/P40S/Q125H/Q178H/Q39Y/Q99D/R42S/S66N/T262R/V115G/W38E/Y61H)
HLA DRB1*0701 = HLA DRB1*0701 (Homo sapiens, UniProt P01903+P01911, A100R/A102G/A103Q/D57E/D86V/E43K/F76Y/K127E/L162R/M171V/P40G/Q125H/Q99D/R33Q/R42Y/R54Q/S133A/S66F/T210M/V115G/Y107V/Y59L/Y89S)
HLA DRB1*0404 = HLA DRB1*0404 (Homo sapiens, UniProt P01903+P01911, A100R/A169T/F76Y/I96L/K127E/L162R/M171V/N62H/P40V/Q125Y/R42H/S133A/S149N/S66Y/V209L/W38E)
HLA DRB1*0101 = HLA DRB1*0101 (Homo sapiens, UniProt P01903+P01911, A100R/D57E/F55L/F60I/F76Y/I96L/L162R/M171V/P40L/Q125E/R42F/V115G/Y59C)
HLA DRB1*0401 = HLA DRB1*0401 (Homo sapiens, UniProt P01903+P01911, A100K/A169T/F76Y/I96L/K127E/L162R/M171V/N62H/P40V/Q125Y/R42H/S133A/S149N/S66Y/V115G/V209L/W38E)
HLA DRB1*1501 = HLA DRB1*1501 (Homo sapiens, UniProt P01903+P01911)

Chain of HLA DRB1*1101 (P01903 26-254 limits assumed, other chains not shown): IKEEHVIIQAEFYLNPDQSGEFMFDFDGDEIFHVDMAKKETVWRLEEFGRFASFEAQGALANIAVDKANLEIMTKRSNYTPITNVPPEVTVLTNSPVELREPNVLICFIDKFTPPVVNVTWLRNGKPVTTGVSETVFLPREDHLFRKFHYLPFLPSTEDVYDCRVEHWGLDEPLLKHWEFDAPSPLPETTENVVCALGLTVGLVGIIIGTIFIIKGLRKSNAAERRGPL
Chain of HLA DRB1*0301 (P01903 26-254 limits assumed, other chains not shown): as above
Chain of HLA DRB1*1302 (P01903 26-254 limits assumed, other chains not shown): as above

| Molecule | IC50 (HLA DRB1*0301) | IC50 (HLA DRB3*0101) | IC50 (HLA DRB1*1101) | IC50 (HLA DRB1*0405) | IC50 (HLA DRB1*1302) | IC50 (HLA DRB1*0701) | IC50 (HLA DRB1*0404) | IC50 (HLA DRB1*0101) | IC50 (HLA DRB1*0401) | IC50 (HLA DRB1*1501) |
| --- | --- | --- | --- | --- | --- | --- | --- | --- | --- | --- |
| CC(C)C[C@H](NC(=O)[C@H](C)NC(=O)[C@H](CO)NC(=O)[C@H](CC(=O)O)NC(=O)[C@H](CCC(=O)O)NC(=O)[C@@H]1CCCN1)C(=O)N[C@@H](CC(C)C)C(=O)N[C@@H](CCC(=O)O)C(=O)N[C@@H](CC(=O)O)C(=O)N1CCC[C@H]1C(=O)N[C@@H](C)C(=O)NCC(=O)O [30.8] | > 5 µM | 2.05 µM | > 5 µM | > 5 µM | > 5 µM | > 5 µM | > 5 µM | > 5 µM | > 5 µM | > 5 µM |
| APAAPANPGLII [34.2] | > 5 µM | > 5 µM | > 5 µM | > 5 µM | 0.642 µM | > 5 µM | > 5 µM | 1.27 µM | > 5 µM | > 5 µM |
| AYQQGVTVDSIG [24.2] | > 5 µM | > 5 µM | > 5 µM | > 5 µM | > 5 µM | 2.72 µM | > 5 µM | 0.471 µM | 0.212 µM | > 5 µM |
| DPEDSALLEDPA [30.7] | > 5 µM | 1.62 µM | > 5 µM | > 5 µM | > 5 µM | > 5 µM | > 5 µM | > 5 µM | > 5 µM | > 5 µM |
| HAPAAPANPGLI [34.1] | > 5 µM | > 5 µM | > 5 µM | > 5 µM | > 5 µM | > 5 µM | > 5 µM | 3.55 µM | > 5 µM | > 5 µM |
| YQQGVTVDSIGM [24.3] | > 5 µM | > 5 µM | > 5 µM | > 5 µM | > 5 µM | 0.389 µM | > 5 µM | > 5 µM | 4.41 µM | > 5 µM |

— PMC3312789 (Journal of Immunology (Baltimore, Md. : 1950), 2008)
